Test results published in paper PMC12756739 (ACS Omega, 2025).
Read-outs that look alike come from different tables or passages of the source.

What was measured:
EGFR^WT = details: read-out: IC50 EGFR^WT; ref Aboelez et al.; cited from earlier work
EGFR^T790M = details: read-out: IC50 EGFR^T790M; ref Aboelez et al.; cited from earlier work
tubulin polymerization = details: read-out: antitubulin polymerization IC50; ref Aboelez et al.; cited from earlier work
COX-2 enzyme = target: T1, COX-2 enzyme (Homo sapiens, UniProt P35354); test: biochemical
T1 sequence (P35354 18-604): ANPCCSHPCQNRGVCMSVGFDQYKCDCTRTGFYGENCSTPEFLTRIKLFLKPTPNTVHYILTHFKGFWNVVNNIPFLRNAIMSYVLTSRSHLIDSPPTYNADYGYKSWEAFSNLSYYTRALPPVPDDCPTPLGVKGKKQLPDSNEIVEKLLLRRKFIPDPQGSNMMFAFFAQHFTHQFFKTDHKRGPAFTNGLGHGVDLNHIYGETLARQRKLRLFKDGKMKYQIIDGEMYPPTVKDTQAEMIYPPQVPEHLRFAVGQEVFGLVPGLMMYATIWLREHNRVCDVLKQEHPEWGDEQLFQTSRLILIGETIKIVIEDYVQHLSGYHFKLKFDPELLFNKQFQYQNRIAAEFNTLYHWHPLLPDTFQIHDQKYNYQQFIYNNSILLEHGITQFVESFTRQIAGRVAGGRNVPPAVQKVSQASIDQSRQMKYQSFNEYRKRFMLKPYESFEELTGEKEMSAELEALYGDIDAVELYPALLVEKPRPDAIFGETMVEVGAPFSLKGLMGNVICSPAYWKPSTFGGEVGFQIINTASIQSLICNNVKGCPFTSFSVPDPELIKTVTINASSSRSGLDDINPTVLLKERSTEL

MCF-7 cell line [1] = test: MTT cytotoxicity test, MCF-7 cell line; format: cell-based; details: Homo sapiens, MCF7, read-out: IC50 (μM) MCF-7
NIH3T3 cells = test: MTT cytotoxicity test, NIH3T3 cell line; format: cell-based; details: Mus musculus, NIH3T3, read-out: IC50 (μM) NIH3T3
A549 cell line = test: MTT cytotoxicity test, A549 cell line; format: cell-based; details: Homo sapiens, A549, read-out: IC50 (μM) A549
EGFR enzyme = EGFR enzyme (Homo sapiens, UniProt P00533); test: EGFR kinase inhibition assay; format: biochemical
MCF-7 cell line [2] = test: Flow cytometric apoptosis/necrosis analysis; format: cell-based; details: at the IC50 concentration

EGFR enzyme, sequence (P00533 25-1210): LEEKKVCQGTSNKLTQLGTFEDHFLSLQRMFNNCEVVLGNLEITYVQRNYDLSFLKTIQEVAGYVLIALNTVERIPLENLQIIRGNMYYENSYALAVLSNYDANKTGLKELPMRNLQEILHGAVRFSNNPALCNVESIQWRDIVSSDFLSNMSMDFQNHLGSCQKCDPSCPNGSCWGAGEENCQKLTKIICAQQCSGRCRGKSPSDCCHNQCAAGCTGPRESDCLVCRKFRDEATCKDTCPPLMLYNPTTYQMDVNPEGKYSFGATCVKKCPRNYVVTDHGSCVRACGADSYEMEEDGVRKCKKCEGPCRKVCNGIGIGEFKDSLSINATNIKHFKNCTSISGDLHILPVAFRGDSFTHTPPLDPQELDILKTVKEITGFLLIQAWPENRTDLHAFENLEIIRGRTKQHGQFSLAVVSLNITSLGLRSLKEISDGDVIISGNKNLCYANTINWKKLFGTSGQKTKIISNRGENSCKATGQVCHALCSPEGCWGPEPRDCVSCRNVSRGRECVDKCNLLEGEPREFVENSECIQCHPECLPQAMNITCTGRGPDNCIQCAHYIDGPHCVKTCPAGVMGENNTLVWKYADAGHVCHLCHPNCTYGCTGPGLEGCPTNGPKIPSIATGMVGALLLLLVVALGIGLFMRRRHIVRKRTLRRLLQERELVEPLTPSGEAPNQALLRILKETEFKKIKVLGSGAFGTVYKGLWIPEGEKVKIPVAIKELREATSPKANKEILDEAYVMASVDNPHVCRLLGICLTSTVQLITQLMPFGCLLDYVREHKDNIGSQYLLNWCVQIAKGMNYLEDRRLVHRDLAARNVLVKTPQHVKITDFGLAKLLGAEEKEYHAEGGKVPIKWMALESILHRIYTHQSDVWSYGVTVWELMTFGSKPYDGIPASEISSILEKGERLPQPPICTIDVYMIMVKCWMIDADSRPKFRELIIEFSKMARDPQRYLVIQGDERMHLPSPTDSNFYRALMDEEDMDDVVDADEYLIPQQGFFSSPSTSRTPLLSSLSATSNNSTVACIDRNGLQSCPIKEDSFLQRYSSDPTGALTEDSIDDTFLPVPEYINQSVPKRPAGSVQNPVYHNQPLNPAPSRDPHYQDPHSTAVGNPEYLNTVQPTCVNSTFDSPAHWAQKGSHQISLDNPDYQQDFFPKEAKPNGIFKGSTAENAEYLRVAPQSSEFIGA

| Structure (SMILES) | IC50 (COX-2 enzyme) | IC50 (EGFR enzyme) | IC50 (COX-2 enzyme; read-out: COX-2 IC50, fluorometric kit, 25 °C) | IC50 (EGFR^WT) | IC50 (EGFR^T790M) | IC50 (tubulin polymerization) | IC50 (MCF-7 cell line [1]) | IC50 (NIH3T3 cells) | IC50 (A549 cell line) | % early apoptosis (MCF-7 cell line [2]; lower right quadrant) | % necrosis (MCF-7 cell line [2]; upper left quadrant) | % late apoptosis (MCF-7 cell line [2]; upper right quadrant) |
| --- | --- | --- | --- | --- | --- | --- | --- | --- | --- | --- | --- | --- |
| CC(=NNC(=O)c1sc2sc(C(=O)NN=C(C)c3ccccc3)c(N)c2c1N)c1ccccc1 [3,4-diamino-N′2,N′5-bis(1-phenylethylidene)thieno[2,3-b]thiophene-2,5-dicarbohydrazide] | – | – | – | 28.1 nM | 24.6 nM | 5.1 µM | – | – | – | – | – | – |
| O=C(CSc1nnc(NC(=O)c2ccc(Cl)c(Cl)c2)s1)Nc1ccccc1 [3a, 3,4-Dichloro-N-(5-((2-oxo-2-(phenylamino)ethyl)thio)-1,3,4-thiadiazol-2-yl)benzamide] | 2.39 ± 0.104 µM | – | – | – | – | – | > 100 µM | > 100 µM | > 100 µM | – | – | – |
| O=C(CSc1nnc(NC(=O)c2ccc(Cl)cc2)s1)Nc1ccccc1 [3f, 4-Chloro-N-(5-((2-oxo-2-(phenylamino)ethyl)thio)-1,3,4-thiadiazol-2-yl)benzamide] | 0.874 ± 0.039 µM | – | – | – | – | – | > 100 µM | > 100 µM | > 100 µM | – | – | – |
| O=C(CSc1nnc(NC(=O)c2ccc(Cl)cc2)s1)Nc1ccc(C(F)(F)F)cc1 [3g, 4-Chloro-N-(5-((2-oxo-2-((4-(trifluoromethyl)phenyl)amino)ethyl)thio)-1,3,4-thiadiazol-2-yl)benzamide] | > 100 µM | – | – | – | – | – | 27.1 ± 1.26 µM | > 100 µM | 21.1 ± 0.996 µM | – | – | – |
| NS(=O)(=O)c1ccc(NC(=O)CSc2nnc(NC(=O)c3ccc(Cl)cc3)s2)cc1 [3j, 4-Chloro-N-(5-((2-oxo-2-((4-sulfamoylphenyl)amino)ethyl)thio)-1,3,4-thiadiazol-2-yl)benzamide] | 0.192 ± 0.008 µM | 20 ± 0.8 nM | – | – | – | – | 2.38 ± 0.108 µM | 85.6 ± 3.16 µM | 20.7 ± 0.984 µM | 20.20% | 4.08% | 15.56% |
| O=C(CSc1nnc(NC(=O)c2ccc(F)cc2)s1)Nc1ccccc1 [3k, 4-Fluoro-N-(5-((2-oxo-2-(phenylamino)ethyl)thio)-1,3,4-thiadiazol-2-yl)benzamide] | > 1000 µM | – | – | – | – | – | > 100 µM | > 100 µM | 69.1 ± 2.8 µM | – | – | – |
| O=C(CSc1nnc(NC(=O)c2ccc(F)cc2)s1)Nc1ccc(C(F)(F)F)cc1 [3l, 4-Fluoro-N-(5-((2-oxo-2-((4-(trifluoromethyl)phenyl)amino)ethyl)thio)-1,3,4-thiadiazol-2-yl)benzamide] | – | – | 0.974 ± 0.045 µM | – | – | – | 30.5 ± 1.37 µM | 46.2 ± 1.82 µM | 41.1 ± 1.96 µM | – | – | – |

Further lines, with some results ahead:

| IC50 (COX-2 enzyme) | IC50 (EGFR enzyme) | IC50 (COX-2 enzyme; read-out: COX-2 IC50, fluorometric kit, 25 °C) | Structure (SMILES) | IC50 (EGFR^WT) | IC50 (EGFR^T790M) | IC50 (tubulin polymerization) | IC50 (MCF-7 cell line [1]) | IC50 (NIH3T3 cells) | IC50 (A549 cell line) | % early apoptosis (MCF-7 cell line [2]; lower right quadrant) | % necrosis (MCF-7 cell line [2]; upper left quadrant) | % late apoptosis (MCF-7 cell line [2]; upper right quadrant) |
| --- | --- | --- | --- | --- | --- | --- | --- | --- | --- | --- | --- | --- |
| > 1000 µM | – | – | O=C(CSc1nnc(NC(=O)c2ccc(Cl)c(Cl)c2)s1)Nc1ccc(C(F)(F)F)cc1 [3b, 3,4-Dichloro-N-(5-((2-oxo-2-((4-(trifluoromethyl)phenyl)amino)ethyl)thio)-1,3,4-thiadiazol-2-yl)benzamide] | – | – | – | > 100 µM | 67.1 ± 2.37 µM | 46.5 ± 1.45 µM | – | – | – |
| 6.72 ± 0.312 µM | – | – | O=C(CSc1nnc(NC(=O)c2ccc(Cl)c(Cl)c2)s1)Nc1ccc(Cl)cc1 [3d, 3,4-Dichloro-N-(5-((2-((4-chlorophenyl)amino)-2-oxoethyl)thio)-1,3,4-thiadiazol-2-yl)benzamide] | – | – | – | > 100 µM | > 100 µM | > 100 µM | – | – | – |
| 0.32 ± 0.014 µM | – | – | NS(=O)(=O)c1ccc(NC(=O)CSc2nnc(NC(=O)c3ccc(Cl)c(Cl)c3)s2)cc1 [3e, 3,4-Dichloro-N-(5-((2-oxo-2-((4-sulfamoylphenyl)amino)ethyl)thio)-1,3,4-thiadiazol-2-yl)benzamide] | – | – | – | 11 ± 0.402 µM | 70.8 ± 2.5 µM | > 100 µM | – | – | – |
| 3.78 ± 0.177 µM | – | – | O=C(CSc1nnc(NC(=O)c2ccc(Cl)cc2)s1)Nc1ccc(Cl)cc1 [3i, 4-Chloro-N-(5-((2-((4-chlorophenyl)amino)-2-oxoethyl)thio)-1,3,4-thiadiazol-2-yl)benzamide] | – | – | – | 12.1 ± 0.589 µM | 24.9 ± 1.18 µM | > 100 µM | – | – | – |
